# Source: patent publication US9045484B2, “Inhibitors of the BMP signaling pathway” (The Brigham and Women's Hospital, Inc., priority 2008, dated 2015)
# Assays:
# [1] = test system: C57BL/6 wild-type mice; experiment: 30-day treatment of wild-type mice, circulating blood cell lineages; assay type: in vivo, C57BL/6 mice
# [2] = test system: LDL-R-deficient mice; experiment: Vascular calcification in high-fat diet fed LDL-R-deficient mice, Osteosense probe imaging of aortas; assay type: in vivo; conditions: 16 weeks high fat diet; compound 13 mg/kg IP twice daily; FIG. 24
# Description: Adult (10 week old) LDL-R-deficient mice on a C57BL/6 background were subjected to a high-lipid atherogenic diet, concurrently with vehicle treatment or drug treatment (compound 13 mg/kg IP twice daily) started simultaneously with atherogenic diet. After 16 weeks of high fat diet and drug treatment, aortas, carotids, and left ventricular outflow tract were harvested and prepared as appropriate for histochemical staining or immunohistological staining, by en face mounting and fixation, or for paraffin embedded tissue sections for histology. To analyze early osteogenesis (as a precursor to calcification), mice were injected intravenously with Osteosense probe (VisEn) 24 hours prior to harvest, and harvested aortas were rinsed with phosphate buffered saline. Visualization of Osteosense probe was accomplished by near-IR fluorescence ([…]) using a LICOR laser scanner. This technique readily detected signal in aortas obtained from high-fat diet LDL-R-deficient mice treated with vehicle control (e, f, and g), while relatively little background signal was obtained in wild-type mice given a normal diet (a, b). Non-fluorescent imaging of wild-type aortas is also depicted (c, d).
# [3] = test system: hepcidin; experiment: Hepcidin expression in IL-6-expressing transgenic zebrafish; assay type: in vivo; conditions: 6 uM by bathing overnight; 7 days postfertilization; FIG. 22
# Description: IL-6 expression was driven in the cardiomyocytes of living zebrafish by mating transgenic zebrafish expressing the Gal4 protein under the control of the cardiac myosin light chain 2 (cmlc) promoter with transgenic zebrafish carrying the human IL-6 gene under the control of a UAS upstream activation sequence (IL-6). Animals carrying both transgenes expressed IL-6 in their cardiomyocytes. IL-6-expressing animals were treated with 6 uM compound 13 or DMSO control by bathing overnight (FIG. 22). At 7 days postfertilization, animals were lysed, total RNA was extracted, and hepcidin expression levels were determined by quantitative RT-PCR with normalization to the housekeeping gene RPL13.
# [4] = test system: hepcidin; experiment: Hepatic hepcidin expression in the steady state after 30 days treatment; assay type: in vivo, C57BL/6 mice; conditions: 3 mg/kg/d IP for 30 days; FIG. 16
# Description: Ten-week-old male C57BL/6 mice fed a normal iron replete diet were treated chronically with compound 13 (3 mg/kg/d IP) or vehicle for 30 days, and hepatic hepcidin mRNA levels were measured by quantitative RT-PCR.
# [5] = C57BL/6, mouse, in vivo, ip, 3 mg/kg, 8 h
# Description: Preliminary pharmacokinetic studies were performed by intraperitoneally administering to wild-type mice (C57BL/6) one dose (3 mg/kg) of compound 13 (FIG. 23). Pharmacokinetics via plasma levels of compound 13 were serially measured in individual mice at varying intervals after injection by LC-MS/MS (n=3 mice each point, mean±s.d.).
# [6] = Microsomal stability in pooled mouse liver microsomes; assay type: in vitro ADME; conditions: 0.5 mg/mL microsome protein, 1 mM NADPH
# Description: Test compound (3 μM final concentration) along with 0.5 mg/mL microsome protein and 1 mM NADPH was incubated for 0, 5, 15, 30 and 60 min. Incubation of test compound and microsomes in the absence of NADPH served as a negative control. The samples were quenched with methanol and centrifuged for 20 min at 2500 rpm to precipitate proteins. Sample supernatants were analyzed (N=3) by LC/MS. The ln peak area ratio (compound peak area/internal standard peak area) was plotted against time and the slope of the line determined to give the elimination rate constant [k=(−1)(slope)]. The half life (t1/2 in minutes) and the in vitro intrinsic clearance (CLint in μL/min/mg protein) values were calculated according to the following equations, where V=incubation volume in μL/mg protein: […]
# [7] = test system: turpentine-treated C57BL/6 mice; experiment: Established turpentine-induced anemia of inflammation (rescue); assay type: in vivo
# Description: After the establishment of anemia, treatment with either vehicle or compound 13 (3 mg/kg/d IP) is begun concurrently with an additional 3 weeks of weekly turpentine injections, to assess the potential for rescuing established turpentine-induced anemia of inflammation. […] Shaded areas indicate normative values in C57BL/6 mice for each parameter.
# [8] = test system: KDR-mediated signaling; experiment: Antagonism of KDR-mediated signaling (not shown); conditions: compound 13 versus dorsomorphin
# [9] = 3 mg/kg/d IP for 30 days, average (n = 4)
compound,measurement,setting,value
"c1ccc2c(-c3cnn4cc(-c5ccc(N6CCNCC6)cc5)cnc34)ccnc2c1 [Compound 13, 4-[6-(4-piperazin-1-ylphenyl)pyrazolo[1,5-a]pyrimidin-3-yl]quinoline]","myelosuppression, thrombocytopenia, anemia or erythrocytosis",[1]; 3 mg/kg/d IP for 30 days,"did not appear to cause myelosuppression, thrombocytopenia, anemia or conversely erythrocytosis"
same,% Lymphocyte,[1]; [9],63.1%
same,% Monocyte,[1]; [9],3.8%
same,% Neutrophil,[1]; [9],30.8%
same,% Reticulocyte,[1]; [9],2.6%
same,Hb,[1]; [9],11.9 g/dL
same,Hct,[1]; [9],43.8%
same,MCHC,[1]; [9],27.3 g/dL
same,MCV,[1]; [9],48.5 fL
same,Platelet count,[1]; [9],8.305e+11 L⁻¹
same,RBC,[1]; [9],9e+12 L⁻¹
same,RDW,[1]; [9],18.6%
same,Total WBC,[1]; [9],1.9e+09 L⁻¹
same,serum iron in the steady state,"[1]; 30 days treatment, compared to vehicle-treated controls, data not shown",did not cause an elevation of serum iron
same,Osteosense near-IR fluorescence of aortas,[2],less intense than that of vehicle-treated controls
same,hepcidin expression in IL-6-expressing animals,[3],reduced hepcidin expression to wild-type levels
same,basal hepatic hepcidin mRNA levels relative to vehicle-treated mice,[4],40%
same,plasma levels relative to in vitro IC50 for BMP4-mediated activation of Smad1/5/8,[5],5 fold
same,half-life at 3 μM,[6]; read-out: half-life (t1/2) in mouse liver microsomes,1.37 h
same,microsomal CLint at 3 μM,[6]; read-out: intrinsic clearance (CLint) in mouse liver microsomes,16.9 ± 5.6 µL/min/mg
same,blood hemoglobin,"[7]; 3 mg/kg/d IP for final 3 weeks of 6 weeks turpentine, FIG. 17",significant improvement
same,hematocrit,"[7]; 3 mg/kg/d IP for final 3 weeks of 6 weeks turpentine, FIG. 18",restoration of hematocrit to values within the normal range
same,mean corpuscular volume (MCV),"[7]; 3 mg/kg/d IP for final 3 weeks of 6 weeks turpentine, FIG. 19",restores MCV to low-normal levels
same,neutrophilia,[7]; FIG. 21,induced neutrophilia regardless of treatment with vehicle or compound 13
same,reticulocyte counts,"[7]; cotreatment for final 3 weeks of 6 weeks turpentine, FIG. 20",restores high-normal reticulocyte counts
same,antagonism of KDR-mediated signaling,[8],five- to six-fold reduction
